The source of these data is US11432547B2, “Inhibitors of GRB2-associated binding protein 1 (GAB1) and methods of treating cancer using the same” (Arizona Board of Regents on Behalf of the University of …, priority 2014, dated 2022).

Data set [1] relates to T47D breast cancer cell line. Description: Cellular proliferation assay (MTT), T47D. It counts as cell-based, human. As to conditions: for IC50: Homo sapiens, T47D, 96 h, 4 days growth, MTT, IA: Inactive. How it is done:
(§1) Two human breast cancer Cell lines and one normal breast cell line were used for this study: T47D ductal missing highlighted section in original pg. 26Type Culture Collection, Rockville, Md.). T47D and MDA-MB-231 cells were maintained in bulk culture in Dulbecco's modified Eagle medium (DMEM) supplemented with 10% heat-inactivated fetal bovine serum (FBS), 4.5 g/L glucose, 100 U/mL penicillin and […] streptomycin in a 5% CO2 atmosphere. MCF-10A cells were maintained in MEGM with other conditions same as the cancer cell lines. […] Cells were confirmed to be mycoplasma free by testing them with an ELISA kit (Roche-Boehringer Mannheim, Indianapolis, Ind.). The hit compounds were freshly prepared in DMSO at a stock concentration of 10 mM. For the evaluation of cellular proliferation, a standard 96-well micro-cytotoxicity assay was performed as described in reference. Briefly, the assay was set up by plating cells at 5,000-10,000 cells per well (depending on cell doubling time) for a growth period of 4 days. The identified hits were added directly to the media, dissolved in DMSO at various concentrations ranging from 1 to 200 μM. The endpoint was spectrophotometric determination of the reduction of 3-(4,5-dimethylthiazol-2-yl)-2,5-diphenyltetrazolium bromide. All assays were performed in triplicates.

For data set [2], the system named is GAB1 Y627 phosphorylation. Put plainly: Inhibition of GAB1 Y627 phosphorylation in T47D cells. It counts as cell-based. As to conditions: Homo sapiens, Y627, 20 μM compound 4 hr, HGF stimulated, read-out: % pGAB1 inhibition. How it is done: For all biological assays, hit compounds were added at 20 μM concentration directly into the culture media of the cells for 4 hr following a 16 hr incubation of T47D cells without FBS. Cells were stimulated with HGF for 20 min at 50 ng/ml. Following this treatment, cells were lysed and equal amounts of total cell lysate were loaded on a pSer^312-IRS-1/Total IRS-1 Meso Scale Discovery plate as described by the manufacturer. The plate was read using a Sector™Imager 2400A instrument (Meso Scale Discovery protein profiling system, Gaithersburg, Md.). For the measurement of GAB1 phosphorylation, T47D cells were treated as for the phosphorylation of IRS1 evaluation. […] Each experiment was performed at least three times.

For data set [3], the system named is MDA-MB-231 breast cancer cell line. Description: Cellular proliferation assay (MTT), MDA-MB-231. As to conditions: for IC50: Homo sapiens, MDA-MB-231, 96 h, 4 days growth, MTT, IA: Inactive. It counts as cell-based, human. How it is done: as §1
For the next data set, the target named is T1, GAB1 PH domain (Homo sapiens, UniProt Q13480).
T1 sequence (Q13480 5-116 limits assumed): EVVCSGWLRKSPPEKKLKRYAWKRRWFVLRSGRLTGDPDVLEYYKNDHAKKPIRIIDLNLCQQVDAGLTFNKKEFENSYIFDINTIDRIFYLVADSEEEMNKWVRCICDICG
Description: SPR binding assay, GAB1 PH domain. As to conditions: for Exp. ΔGbind: GAB1, derived from experimental KD or Ki, RT ln(KD). For orientation: SPR reads the build-up and loss of mass on a sensor chip optically.

Data set [4] deals with MCF-10A breast epithelial cell line. Put plainly: Cellular proliferation assay, MCF-10A. It counts as cell-based, human. The note with it: data not shown. How it is done: Two human breast cancer Cell lines and one normal breast cell line were used for this study: T47D ductal missing highlighted section in original pg. 26Type Culture Collection, Rockville, Md.). T47D and MDA-MB-231 cells were maintained in bulk culture in Dulbecco's modified Eagle medium (DMEM) supplemented with 10% heat-inactivated fetal bovine serum (FBS), 4.5 g/L glucose, 100 U/mL penicillin and […] streptomycin in a 5% CO2 atmosphere. MCF-10A cells were maintained in MEGM with other conditions same as the cancer cell lines. Cells were passaged using 0.25% trypsin and 0.02% EDTA. Cells were confirmed to be mycoplasma free by testing them with an ELISA kit (Roche-Boehringer Mannheim, Indianapolis, Ind.). The hit compounds were freshly prepared in DMSO at a stock concentration of 10 mM. For the evaluation of cellular proliferation, a standard 96-well micro-cytotoxicity assay was performed as described in reference. Briefly, the assay was set up by plating cells at 5,000-10,000 cells per well (depending on cell doubling time) for a growth period of 4 days. The identified hits were added directly to the media, dissolved in DMSO at various concentrations ranging from 1 to 200 μM. The endpoint was spectrophotometric determination of the reduction of 3-(4,5-dimethylthiazol-2-yl)-2,5-diphenyltetrazolium bromide. All assays were performed in triplicates.

A further data set deals with T2, IRS1 PH domain (Homo sapiens, UniProt P35568).
T2 sequence (P35568 12-115 limits assumed): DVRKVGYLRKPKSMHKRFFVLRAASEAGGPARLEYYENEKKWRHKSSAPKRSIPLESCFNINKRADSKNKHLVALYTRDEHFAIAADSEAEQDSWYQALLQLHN
Put plainly: SPR binding assay, IRS1 PH domain (selectivity). As to conditions: derived from experimental KD, RT ln(KD).

The target of the next data set is GAB2 PH domain (Homo sapiens, UniProt Q9UQC2). Description: Follow-up experiments, GAB2 PH domain. It counts as binding.
For another data set, the system named is MDA-MB-468 cell line. Description: Cellular proliferation assay, MDA-MB-468. It counts as cell-based. As to conditions: Homo sapiens, printed in MDA-MB-231 column with ** footnote, read-out: IC50 (μM), MDA-MB-468 cell line used.
Setting [5] is: competitive binding vs PtdIns(3,4,5)P3 liposomes, values with asterisk, read-out: Kn or Ki (μM) GAB1, *Ki measurement.

Several values for one entry are separate records, joined by “and”; a condition that tells them apart may be missing. Equal values may be shown once. Read-outs that look alike come from different tables or passages of the source.

Sequence of GAB2 PH domain (Q9UQC2 6-117 limits assumed): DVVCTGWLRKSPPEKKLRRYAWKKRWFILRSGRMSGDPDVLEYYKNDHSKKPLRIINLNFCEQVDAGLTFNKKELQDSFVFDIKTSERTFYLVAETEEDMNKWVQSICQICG
Description for IRS1 PH domain: The DNA sequences of human GAB1 and IRS1 PH domain (IRS1 is for selectivity evaluation) were cloned into pGEX-4T1 inducible bacterial expression plasmid (GeneStorm, Invitrogen, Carlsbad, Calif.) transformed into BL21 (DE3) E. Coli. Expression and purification of the recombinant proteins were performed. Binding assays were performed using a Biacore 2000 instrument with the Biacore Control Software v3.2 and BIAevaluation v4.1 analysis software (Biacore, Piscataway, N.J.). Briefly, the PH domain GST-fusion proteins were immobilized on a CMS Sensorchip (Biacore BR-1000-12) using Biacore's Amine Coupling Kit (Biacore BR-1000-50) to a level of 10,000 Response units (RUs). Small molecule analytes at concentrations ranging from one tenth to ten times the predicted KD were injected at a high flow rate (30 μL/min). Dimethylsulfoxide (DMSO) concentrations in all samples and running buffer were 1% (v/v) or less. […] The inventors did triplicate SPR assays for each concentration.

Turning to `O=c1[nH]nc(SCc2csc(-c3ccccc3)n2)n1Cc1ccco1` [GAB-004], the values for the IC50 in data set [1] and in data set [3] were 19.4 ± 2.9 µM and 66.6 ± 4.6 µM, respectively. For the same compound, the inhibition at 20 µM in data set [2] is 81%. For the same compound, the “Exp. ΔGbind” value on GAB1 PH domain is -7.78 kcal/mol.
Turning to `Cn1cnc(S(=O)(=O)Nc2ccccc2SCCS(=O)(=O)c2ccc(Cl)cc2)c1` [GAB-002], the values for the IC50 in data set [1] and in data set [3] were 138 ± 6.9 µM and 143 ± 11.6 µM, respectively. In addition, the inhibition at 20 µM in data set [2] stood at 32%.
Regarding `CCCCCCCCCCCCc1ccc(S(=O)(=O)Nc2nncs2)cc1` [GAB-020], the inhibition at 20 µM in data set [2] worked out at 87%.
In the case of `O=S(=O)(NCc1csc2ccc(Cl)cc12)c1cc(S(=O)(=O)c2ccccc2)cs1` [GAB-001], the IC50 in data set [1] worked out at 23.7 ± 2.7 µM; in data set [3], 40.3 ± 1.3 µM. In data set [2], the inhibition at 20 µM was determined as 55%. For the same compound, on GAB1 PH domain, the “Exp. ΔGbind” value is -6.91 kcal/mol. For the same compound, the Ki on GAB1 PH domain (setting [5]) is 9.4 µM and 9.38 µM.
As for `COc1cc(NS(=O)(=O)c2ccc(NS(=O)(=O)c3c(C)noc3C)cc2)nc(OC)n1` [GAB-013], in data set [1], the “killing of T47D at 50 μM” value is listed as “did not effectively kill” and the IC50 is more than 200 µM. The inhibition at 20 µM in data set [2] was found to be 27%. In addition, in data set [3], the “killing of MDA-MB-231 at 50 μM” value is on record as “did not effectively kill” and the IC50 was more than 200 µM. In addition, in data set [4], the “toxicity to MCF-10A at 100 μM” value is given as “toxic”.
With `O=S(=O)(NCc1csc(-c2cccs2)n1)c1ccc(N2CCOCC2)nc1` [GAB-008], the values for the IC50 in data set [1] and in data set [3] were 43.2 ± 3.2 µM and more than 200 µM, respectively. The inhibition at 20 µM in data set [2] worked out at 8%.
On the same counts, the results for `CS(=O)(=NS(=O)(=O)c1ccc(-c2ccccn2)s1)c1ccc(Cl)cc1` (stereo not drawn) [GAB-005] are more than 200 µM, more than 200 µM and 6%.
Take `CCCCCCCCCCCCc1ccc(S(=O)(=O)Nc2nnc(CC(=O)O)s2)cc1` [GAB-015]: the IC50 in data set [1] came out at 125 ± 5.4 µM. The inhibition at 20 µM in data set [2] (T47D, 4 h) came out at 77%. In addition, on GAB1 PH domain (setting [5]), the Ki was found to be 13.1 ± 1.5 µM.
Consider `CCCCCCCCCCCCc1ccc(S(=O)(=O)Nc2nnc(CC(=O)OCC)s2)cc1` [GAB-016], for which, in data set [2] (T47D, 4 h), the inhibition at 20 µM was more than 80%. In addition, the “Exp. ΔGbind” value at IRS1 PH domain is -9.38 kcal/mol; on GAB1 PH domain, -8.31 kcal/mol. The “targeting of GAB2 PH domain” value at GAB2 PH domain is listed as “targets GAB2 PH domain”.
Consider `O=C(O)c1ccccc1C(=O)Nc1ccccc1SCCS(=O)(=O)c1ccc(Cl)cc1` [GAB-012], for which, in data set [1], the “killing of T47D at 50 μM” value was “did not effectively kill” and the IC50 was determined as 119 ± 3.6 µM. Also, the inhibition at 20 µM in data set [2] stood at 43%. In data set [3], the “killing of MDA-MB-231 at 50 μM” value was “did not effectively kill” and the IC50 is more than 200 µM. Also, the “toxicity to MCF-10A at 100 μM” value in data set [4] is listed as “toxic”.
In the case of `Cc1nnc(NS(=O)(=O)c2ccc(NS(=O)(=O)c3ccc4ccccc4c3)cc2)s1` [GAB-014], the IC50 in data set [1] stood at 178 ± 3.9 µM; in the data set with MDA-MB-468 cell line, 69.9 ± 0.1 µM. Also, the inhibition at 20 µM in data set [2] worked out at 42%.
Compound `Cc1cc2ncc(-c3cnc(SCCS(=O)(=O)c4ccc(Cl)cc4)nc3)c(C)n2n1` [GAB-006] came in with an IC50 in data set [1] of 101 ± 1.8 µM. Further, the inhibition at 20 µM in data set [2] was 16%.
In the case of `Cn1c(Cc2ccsc2)nnc1SCC(=O)Nc1cc(Cl)cc(Cl)c1` [GAB-011], the IC50 in data set [1] and in data set [3] was more than 200 µM in each case. In addition, in data set [2], the inhibition at 20 µM worked out at 24%.
On to `CS(=O)(=O)CCSc1ncccc1C(=O)Sc1ccc(Cl)cc1Cl` [GAB-007], for which the IC50 in data set [1] came to 20.1 ± 4.3 µM; in data set [3], 4.6 ± 0.7 µM. In addition, the inhibition at 20 µM in data set [2] turned out to be 53%. Further, the “Exp. ΔGbind” value is -7.93 kcal/mol at IRS1 PH domain and -6.01 kcal/mol at GAB1 PH domain. Also, the Ki on GAB1 PH domain (SPR direct binding, values without asterisk, NB: No Binding, read-out: Kn or Ki (μM) GAB1) worked out at 42.3 ± 8.9 µM.
As to `CCCCCCCCCCCCc1ccc(S(=O)(=O)Nc2nnc(S(N)(=O)=O)s2)cc1` [GAB-018], in data set [1], the “killing of T47D at 50 μM” value was “did not effectively kill” and the IC50 came out at 185 ± 2.5 µM. Further, the inhibition at 20 µM in data set [2] (T47D, 4 h) was found to be 71%. Besides, the “killing of MDA-MB-231 at 50 μM” value in data set [3] is listed as “did not effectively kill”. Besides, the Ki at GAB1 PH domain (setting [5]) stood at 36.6 ± 5 µM.
Take `CCCCCCCCCCCCCCCCCCOC[C@H](COP(=O)(O)OC1C(O)[C@@H](O)C(O)C[C@H]1O)OC` (stereo partly drawn) [DPIEL, reference compound]: the inhibition at 20 µM in data set [2] amounted to 72%.
`Cc1noc(C)c1NC(=O)NCc1csc(-c2cccs2)n1` [GAB-009]: the IC50 in data set [1] was 97.6 ± 6.1 µM; in data set [3], 163 ± 6 µM. Further, in data set [2], the inhibition at 20 µM amounted to 38%.
Consider `Cc1onc(-c2ccccc2)c1-c1nc(CSc2nc3ccccc3[nH]2)no1` [GAB-010], for which the IC50 in data set [1] is 23.8 ± 4.2 µM; in data set [3] it was 66 ± 4.4 µM. The inhibition at 20 µM in data set [2] turned out to be 92%. In addition, at IRS1 PH domain, the “Exp. ΔGbind” value was -9.51 kcal/mol.
As for `CCc1ccc(C(=O)OC)cc1CSc1nnc(-c2ccc(C(F)(F)F)cc2)n1Cc1ccoc1` [GAB-019], in data set [1], the IC50 was 39.4 ± 6.2 µM. Besides, the inhibition at 20 µM in data set [2] amounted to 91%.
`Cc1nc(-c2cnc(S(=O)(=O)N3CCN(C4c5ccccc5-c5ccccc54)CC3)s2)cs1` [GAB-003]: the figures for the IC50 in data set [1] and in data set [3] were 13.9 ± 0.6 µM and 85.2 ± 7.2 µM, respectively. In addition, in data set [2], the inhibition at 20 µM came to 14%.
`CCCCCCCCCCCCc1ccc(S(=O)(=O)Nc2nnc(C(=O)OCC)s2)cc1` [GAB-017]: the inhibition at 20 µM in data set [2] (T47D, 4 h) was more than 80%. In addition, the “Exp. ΔGbind” value at GAB1 PH domain was -8.47 kcal/mol.

The IC50 is the concentration that inhibits the measured activity by half. For orientation: inhibition means the share of the control response that was lost under treatment. The term Ki denotes a dissociation constant, usually derived from enzyme kinetics or from competition with a known ligand.
